Calls of active or inactive are those of the source. The rule behind the calls is not given here.
Columns and labels:
[1] = Antitumor activity against human MG63 cells assessed as growth inhibition after 48 hrs by MTT assay; type: functional, cell-based; settings: MG-63, 48 h
[2] = Antioxidant activity assessed as suppression ratio of hydroxyl radical formation at 3 uM after 30 mins by absorbance analysis; type: functional
Bos taurus [3] = species on record: Bos taurus; test: Intrinsic binding affinity to calf thymus DNA at 231 nm after 5 mins by electronic absorption analysis
Calf thymus DNA [4] = test: Binding affinity to calf thymus DNA assessed as hypochromicity at 231 nm at 40 uM after 5 mins by electronic absorption analysis; type: nucleic-acid assay; settings: Bos taurus
[5] = Antioxidant activity assessed as suppression ratio of hydroxyl radical formation at 3.5 uM after 30 mins by absorbance analysis; type: functional
[6] = Antitumor activity against human SKBR3 cells assessed as growth inhibition after 48 hrs by MTT assay; type: functional, cell-based; settings: SK-BR-3, 48 h
Calf thymus DNA [7] = test: Binding affinity to calf thymus DNA assessed as decrease in compound emission intensity at 356 nm at 20 uM by luminescence spectrometer analysis; type: nucleic-acid assay; settings: Bos taurus
Escherichia coli [8] = test: Induction of Escherichia coli supercoiled pBR322 DNA cleavage assessed as increase in open circular form measured after UV irradiation by agarose gel electrophoresis analysis
[9] = Antioxidant activity assessed as suppression ratio of hydroxyl radical formation at 1 uM after 30 mins by absorbance analysis; type: functional
[10] = Antioxidant activity assessed as suppression ratio of hydroxyl radical formation at 1.5 uM after 30 mins by absorbance analysis; type: functional
Calf thymus DNA [11] = test: Binding affinity to calf thymus DNA assessed as intercalation by measuring viscosity by viscometer analysis; type: nucleic-acid assay; settings: Bos taurus
[12] = Antioxidant activity assessed as suppression ratio of hydroxyl radical formation at 2 uM after 30 mins by absorbance analysis; type: functional
[13] = Antioxidant activity assessed as suppression of hydroxyl radical formation after 30 mins by absorbance analysis; type: functional
[14] = Antitumor activity against human Bel7402 cells assessed as growth inhibition after 48 hrs by MTT assay; type: functional, cell-based; settings: Bel-7402, 48 h
A549 [15] = test: Antitumor activity against human A549 cells assessed as growth inhibition after 48 hrs by MTT assay; type: functional, cell-based; settings: A549, 48 h
Calf thymus DNA [16] = test: Binding affinity to calf thymus DNA assessed as luminescence intensity at compound to DNA ratio of 1:2 by job plot analysis; type: nucleic-acid assay; settings: Bos taurus
[17] = Antioxidant activity assessed as suppression ratio of hydroxyl radical formation at 0.5 uM after 30 mins by absorbance analysis; type: functional
[18] = Antioxidant activity assessed as suppression ratio of hydroxyl radical formation at 2.5 uM after 30 mins by absorbance analysis; type: functional
Escherichia coli [19] = test: Induction of Escherichia coli supercoiled pBR322 DNA cleavage assessed as decrease in intact supercoiled form measured after UV irradiation by agarose gel electrophoresis analysis
A549 [20] = test: Induction of cell cycle arrest in human A549 cells assessed as accumulation at S phase of cell cycle at 25 uM after 24 hrs by propidium iodide staining based flow cytometry (reference value: 9.8%); type: functional
A549 [21] = test: Induction of apoptosis in human A549 cells assessed as necrotic cells at 50 uM after 24 hrs by flow cytometry (reference value: 0.04%); type: functional
A549 [22] = test: Induction of apoptosis in human A549 cells assessed as apoptotic cells at 25 uM after 24 hrs by flow cytometry (reference value: 0%); type: functional
A549 [23] = test: Induction of apoptosis in human A549 cells assessed as viable cells at 25 uM after 24 hrs by flow cytometry (reference value: 92.28%); type: functional; settings: A549, 24 h, read-out: Activity
Calf thymus DNA [24] = test: Binding affinity to calf thymus DNA assessed as increase in compound emission intensity at 446 nm at 20 uM by luminescence spectrometer analysis; type: nucleic-acid assay; settings: Bos taurus
Calf thymus DNA [25] = test: Binding affinity to calf thymus DNA assessed as hypochromicity at 233 nm at 40 uM after 5 mins by electronic absorption analysis; type: nucleic-acid assay; settings: Bos taurus
Calf thymus DNA [26] = test: Binding affinity to calf thymus DNA assessed as luminescence intensity at compound to DNA ratio of 4:1 by job plot analysis; type: nucleic-acid assay; settings: Bos taurus
A549 [27] = test: Induction of cell cycle arrest in human A549 cells assessed as accumulation at G0/G1 phase of cell cycle at 25 uM after 24 hrs by propidium iodide staining based flow cytometry (reference value: 73.79%); type: functional
A549 [28] = test: Induction of cell cycle arrest in human A549 cells assessed as accumulation at G2/M phase of cell cycle at 25 uM after 24 hrs by propidium iodide staining based flow cytometry (reference value: 14.73%); type: functional
A549 [29] = test: Induction of apoptosis in human A549 cells assessed as necrotic cells at 25 uM after 24 hrs by flow cytometry (reference value: 0.04%); type: functional
Bos taurus [30] = species on record: Bos taurus; test: Intrinsic binding affinity to calf thymus DNA at 233 nm after 5 mins by electronic absorption analysis
A549 [31] = test: Induction of apoptosis in human A549 cells assessed as apoptotic cells at 50 uM after 24 hrs by flow cytometry (reference value: 0%); type: functional
A549 [32] = test: Induction of apoptosis in human A549 cells after 24 hrs by flow cytometry; type: functional, cell-based
A549 [33] = test: Induction of apoptosis in human A549 cells assessed as viable cells at 50 uM after 24 hrs by flow cytometry (reference value: 92.28%); type: functional; settings: A549, 24 h, read-out: Activity
Calf thymus DNA [34] = test: Binding affinity to calf thymus DNA assessed as luminescence intensity at compound to DNA ratio of 1:1 by job plot analysis; type: nucleic-acid assay; settings: Bos taurus
Calf thymus DNA [35] = test: Binding affinity to calf thymus DNA assessed as decrease in compound emission intensity at 705 nm at 20 uM by luminescence spectrometer analysis; type: nucleic-acid assay; settings: Bos taurus

Structure (SMILES)	IC50 [1] [µM]	inhibition [2] [%]	Kb (Bos taurus [3]) [×10³ /M]	Activity (Calf thymus DNA [4]) [%]	inhibition [5] [%]	IC50 [6] [µM]	Activity (Escherichia coli [8])	inhibition [9] [%]	inhibition [10] [%]	Activity (Calf thymus DNA [11])	inhibition [12] [%]	inhibition [13]	IC50 [14] [µM]	IC50 (A549 [15]) [µM]	inhibition [17] [%]	inhibition [18] [%]	Activity (Escherichia coli [19])	other results
OCc1nc2cc(-c3c(O)ccc4ccccc34)c3ccccc3c2o1	> 100	87.9	5.31	33.4	88.2	> 100	Active	9.24	12.3	Active	23.9	Dose-dependent effect	> 100	> 100	4.04	26.9	Active	inhibition (Calf thymus DNA [7]): 79.6%; Flu intensity (Calf thymus DNA [16]): 0.32 a.u.
OCc1nc2cc(-c3c(O)ccc4cc(Br)ccc34)c3cc(Br)ccc3c2o1	> 100	80.9	–	–	86.7	> 100	Active	23.5	28.3	Active	35.9	Dose-dependent effect	56.4	59.8	15.2	52.8	Active	Activity (A549 [20]): 11.16%; Activity (A549 [21]): 3.18%; Activity (A549 [22]): 3.57%; viability at 25 µM (A549 [23]): 83.5%; Activity (Calf thymus DNA [24]): 5.76%; Activity (Calf thymus DNA [25]): 34.6%; Flu intensity (Calf thymus DNA [26]): 0.8 a.u.; Activity (A549 [27]): 71.9%; Activity (A549 [28]): 15.5%; Activity (A549 [29]): 2.87%; Kb (Bos taurus [30]): 4.44 ×10³ /M; Activity (A549 [31]): 4.09%; Activity (A549 [32]): Dose-dependent effect; viability at 50 µM (A549 [33]): 80%
CC(=O)OCc1nc2cc(-c3c(OC(C)=O)ccc4ccccc34)c3ccccc3c2o1	> 100	86.4	2.64	29	89	> 100	Active	32.5	50.4	Active	75.7	Dose-dependent effect	> 100	> 100	18.9	81.2	Active	Flu intensity (Calf thymus DNA [34]): 0.54 a.u.; inhibition (Calf thymus DNA [35]): 60.4%
